In patent US20100255104A1, “PHARMACEUTICAL FORMULATION OF TAXANE” (ERIOCHEM S.A., priority 2007, published 2010):

Legend:
[1] = Chemical stability test of solubilized docetaxel by HPLC; type: physicochemical; details: vial of Example 3, solubilizing composition with 15% DMA, 25° C., 60% relative humidity
Method: The vial of Example 3 containing a solubilizing composition of 15% DMA was subjected to a chemical stability test described as follows:
Immediately after solubilizing docetaxel and at periods of 2, 4, 6 and 8 hours starting from that moment, a sample is taken from the vial using a disposable syringe (1 ml, Darling) with a disposable hypodermic needle (50×8-21Gx2, Neojet). The volume of the sample was 0.5 ml and each sample was weighed and diluted up to a final volume of 10 ml with the mobile phase to be used in HPLC. Reconstituted material remained in a chamber at 25° C. and 60% room relative humidity during the test time.
Mobile phase: Filtered and deaerated mixture of acetonitrile, Methanol, water (26:32:42 v:v:v). The column used was Beckman stainless steel (Ultrasphere ODS of 4.6 mm×25 cm, 5 μm, part N° 235329). The guard column used was Beckman (Ultrasphere ODS of 4.6 mm×4.5 cm, 5 μm, part N° 243533). The detector used was UV type, Waters 2487 dual and the measure was done at wave length 232 nm. The volume injected was 20 μl, using a Waters 717 plus autosampler, and samples were maintained in the autosampler at 4° C. after preparation until the moment of being injected. Retention time for docetaxel is approximately 25 min and run time is 90 min. Flow rate remained 1.0 ml/min using a Waters 1525 binary pump for HPLC. The software used was Breeze version 3.30. The column temperature was 40° C. A standard for the assessment and determination of related substances was prepared, weighing exactly 20 mg of standard docetaxel in a volumetric flask of 50 ml; it was dissolved with 5 ml ethanol and was diluted up to final volume with mobile phase. A solution of impurity 10-deacethilbaccatine III was prepared in order to detect and quantify it in a chromatogram, weighing 5 mg of 10-deacethilbaccatine III, dissolving with 1 ml ethanol and diluting up to final volume, 10 ml, with mobile phase in a volumetric flask. In the same way, a solution of impurity 7-epi-docetaxel was prepared, weighing 10 mg of docetaxel, 10 ml of NaOH 0.005 N were added. It was left to stand for 2 hours; 2.5 ml of ethanol were added and it was diluted to final volume, 25 ml with mobile phase.

[2] = Laboratory solubility tests of docetaxel API versus lyophilized solid composition in tensoactives; type: physicochemical; details: for solubility in a tensoactive aqueous solution: direct dissolution

SMILES	Docetaxel concentration (percentage of area ratio) ([1]; time 0 hours)	Docetaxel concentration (percentage of area ratio) ([1]; time 2 hours)	Docetaxel concentration (percentage of area ratio) ([1]; time 4 hours)	Docetaxel concentration (percentage of area ratio) ([1]; time 6 hours)	Docetaxel concentration (percentage of area ratio) ([1]; time 8 hours)	solubility in pure polysorbate 80 [2]	solubility in a tensoactive aqueous solution [2]
CC(=O)O[C@@]12CO[C@@H]1C[C@H](O)[C@@]1(C)C(=O)[C@H](O)C3=C(C)[C@@H](OC(=O)[C@H](O)[C@@H](NC(=O)OC(C)(C)C)c4ccccc4)C[C@@](O)([C@@H](OC(=O)c4ccccc4)[C@H]21)C3(C)C [Docetaxel]	99.61 percentage of area ratio	99.59 percentage of area ratio	99.57 percentage of area ratio	99.57 percentage of area ratio	99.54 percentage of area ratio		
CC(=O)O[C@@]12CO[C@@H]1C[C@H](O)[C@@]1(C)C(=O)[C@H](O)C3=C(C)[C@@H](OC(=O)[C@H](O)[C@@H](NC(=O)OC(C)(C)C)c4ccccc4)C[C@@](O)([C@@H](OC(=O)c4ccccc4)[C@H]21)C3(C)C [anhydrous docetaxel]						very difficultly	cannot be dissolved directly
CC(=O)O[C@@]12CO[C@@H]1C[C@H](O)[C@@]1(C)C(=O)[C@H](O)C3=C(C)[C@@H](OC(=O)[C@H](O)[C@@H](NC(=O)OC(C)(C)C)c4ccccc4)C[C@@](O)([C@@H](OC(=O)c4ccccc4)[C@H]21)C3(C)C.O.O.O [trihydrate docetaxel]						very difficultly	cannot be dissolved directly
